US20130060022A1, “Compounds useful for treating neurodegenerative disorders” (priority 2011, published 2013)
Read-outs that look alike come from different tables or passages of the source.

Assays:
Assay type in all cases: cell-based
Conditions in all cases: Homo sapiens, 5 hours at 37° C., 1% DMSO
Aβ-42 = Aβ-42 level in conditioned media of 2B7 cells (MSD 3-PLEX ELISA)
Description: (§1) Assays were conducted to determine the ability of a Compound of Formula I to modulate […], and Aβ-38.
(§2) Human (6E10) Ab 3-PLEX ELISA kits were purchased from Meso Scale Discovery Labs, 9328 Gaither Road, Gaithersburg, Md. 20877 (Catalog Number K15148E-3). Plates with capture antibodies were blocked for 1-2 hours at room temperature with 150 μL of the manufactures blocking reagent.
(§3) Cultured 2B7 cells in 96 well plate with 250 μL of media per well until confluent;
(§4) Prepared serial dilutions of compounds in DMSO at 100× the final desired concentration;
(§5) Washed wells with 2B7 cells 1× with 250 μL of media;
(§6) Diluted DMSO stocks 1:100 into media:
(§7) Added 250 μL of media containing compounds (1% DMSO) to wells with 2B7 cells for 5 hours at 37° C.
(§8) Diluted conditioned media: 1 part media with 1% DMSO and 1 part blocking buffer;
(§9) 150 μL of the 250 μL of conditioned media were used.
(§10) Seven point standard curve samples were prepared that contained Aβ-42, Aβ-40, and Aβ-38. The highest concentration of Aβ-42 and Aβ-38 was […] and the highest concentration of Aβ-40 was 10,000 pg/mL. Subsequent serial dilutions were 1:3 and the final composition of each sample was 1 part blocking buffer and 1 part cell medium containing 1% DMSO.
(§11) Blocked plates are washed 5× with MSD wash buffer with a plate washer;
(§12) 25 μL of detection antibody and blocker G reagent in MSD blocking solution was added;
(§13) 25 μL of samples (1 part conditioned media containing 1% DMSO and 1 part MSD blocking buffer) were then added;
(§14) Plates were incubated overnight at 4 degrees C. or 2 hours at room temperature.
(§15) Washed wells 5× with MSD wash buffer;
(§16) Added 150 μL 2×MSD read buffer;
(§17) Aβ peptide levels for each peptide were calculated from the standard curve using the MSD software provided with the MSD 2400 Imager. Percent vehicle values for each compound dosage were then calculated and fit to a 4 parameter curve generating IC50 values.

Aβ-38 = Aβ-38 level in conditioned media of 2B7 cells (MSD 3-PLEX ELISA)
Description: as §1, §2, §3, §4, §5, §6, §7, §8, §9, §10, §11, §12, §13, §14, §15, §16, §17

Aβ-40 = Aβ-40 level in conditioned media of 2B7 cells (MSD 3-PLEX ELISA)
Description: as §1, §2, §3, §4, §5, §6, §7, §8, §9, §10, §11, §12, §13, §14, §15, §16, §17

[1] = inflection of dose-response curve, read-out: Aβ 38 DR IC50 Inflection
[2] = inflection of dose-response curve, read-out: Aβ 40 DR IC50 Inflection
[3] = inflection of dose-response curve, read-out: Aβ 42 DR IC50 Inflection

| Compound | IC50 (Aβ-42; read-out: Aβ 42 IC50) | IC50 (Aβ-38; [1]) | IC50 (Aβ-38; read-out: Aβ 38 IC50) | IC50 (Aβ-40; [2]) | IC50 (Aβ-40; read-out: Aβ 40 IC50) | IC50 (Aβ-42; [3]) |
| --- | --- | --- | --- | --- | --- | --- |
| CC(C)[C@@H](OC(=O)N1CCC1)[C@H]1C[C@@H](C)[C@H]2[C@H](O1)[C@H](O)[C@@]1(C)[C@@H]3CC[C@H]4C(C)(C)[C@@H](OC(=O)N[C@@H]5CCNC5=O)CC[C@@]45C[C@@]35CC[C@]21C [Compound I-5] | 100 to 500 nM | 100 to 500 nM | 100 to 500 nM | > 5 µM | > 5 µM |  |
| CC(C)[C@@H](OC(=O)N1CCC1)[C@H]1C[C@@H](C)[C@H]2[C@H](O1)[C@H](O)[C@@]1(C)[C@@H]3CC[C@H]4C(C)(C)[C@@H](OC(=O)N5CCNC(C(F)(F)F)C5)CC[C@@]45C[C@@]35CC[C@]21C (stereo partly drawn) [Compound I-13] | 1000 to 5000 nM |  | 1000 to 5000 nM |  |  |  |
| CC(C)[C@@H](OC(=O)N1CCC1)[C@H]1C[C@@H](C)[C@H]2[C@H](O1)[C@H](O)[C@@]1(C)[C@@H]3CC[C@H]4C(C)(C)[C@@H](OC(=O)N5CCN(C6COC6)CC5)CC[C@@]45C[C@@]35CC[C@]21C [Compound I-14] | 501 to 1000 nM |  | 501 to 1000 nM |  |  |  |
| CC(C)[C@@H](OC(=O)N1CCC1)[C@H]1C[C@@H](C)[C@H]2[C@H](O1)[C@H](O)[C@@]1(C)[C@@H]3CC[C@H]4C(C)(C)[C@@H](OC(=O)N5CC(CNS(=O)(=O)C(F)(F)F)C5)CC[C@@]45C[C@@]35CC[C@]21C [Compound I-9] | 1000 to 5000 nM |  | 1000 to 5000 nM |  |  |  |
| CC(C)[C@@H](OC(=O)N1CCC1)[C@H]1C[C@@H](C)[C@H]2[C@H](O1)[C@H](O)[C@@]1(C)[C@@H]3CC[C@H]4C(C)(C)[C@@H](OC(=O)N[C@@H](C)C(=O)O)CC[C@@]45C[C@@]35CC[C@]21C [Compound I-4] | 501 to 1000 nM | 501 to 1000 nM | 1000 to 5000 nM |  | > 5 µM |  |
| CC(C)[C@@H](OC(=O)N1CCC1)[C@H]1C[C@@H](C)[C@H]2[C@H](O1)[C@H](O)[C@@]1(C)[C@@H]3CC[C@H]4C(C)(C)[C@@H](OC(=O)N5CC[C@H](C(=O)O)C5)CC[C@@]45C[C@@]35CC[C@]21C [Compound I-1] | 1000 to 5000 nM |  | 1000 to 5000 nM | > 5 µM | > 5 µM | 1000 to 5000 nM |
| CC(C)[C@@H](OC(=O)N1CCC1)[C@H]1C[C@@H](C)[C@H]2[C@H](O1)[C@H](O)[C@@]1(C)[C@@H]3CC[C@H]4C(C)(C)[C@@H](OC(=O)N[C@H]5CCNC5=O)CC[C@@]45C[C@@]35CC[C@]21C [Compound I-2] | 100 to 500 nM |  | 501 to 1000 nM |  | > 5 µM |  |
| CC(C)[C@@H](OC(=O)N1CCC1)[C@H]1C[C@@H](C)[C@H]2[C@H](O1)[C@H](O)[C@@]1(C)[C@@H]3CC[C@H]4C(C)(C)[C@@H](OC(=O)N(C)CC(=O)O)CC[C@@]45C[C@@]35CC[C@]21C [Compound I-15] | 100 to 500 nM |  | 501 to 1000 nM |  | > 5 µM |  |
| COCCN1CCN(C(=O)O[C@H]2CC[C@]34C[C@]35CC[C@]3(C)[C@@H]6[C@H](O[C@@H]([C@H](OC(=O)N7CCC7)C(C)C)C[C@H]6C)[C@H](O)[C@@]3(C)[C@@H]5CC[C@H]4C2(C)C)CC1 [Compound I-12] | 501 to 1000 nM |  | 1000 to 5000 nM |  | > 5 µM |  |
| CC(C)[C@@H](OC(=O)N1CCC1)[C@H]1C[C@@H](C)[C@H]2[C@H](O1)[C@H](O)[C@@]1(C)[C@@H]3CC[C@H]4C(C)(C)[C@@H](OC(=O)N5CC[C@@H](C(=O)O)C5)CC[C@@]45C[C@@]35CC[C@]21C [Compound I-10] | 1000 to 5000 nM |  | 1000 to 5000 nM |  | > 5 µM |  |
| CC(C)[C@@H](OC(=O)N1CCC1)[C@H]1C[C@@H](C)[C@H]2[C@H](O1)[C@H](O)[C@@]1(C)[C@@H]3CC[C@H]4C(C)(C)[C@@H](OC(=O)N(C)C5CN(C)C5)CC[C@@]45C[C@@]35CC[C@]21C [Compound I-11] | < 100 nM | 100 to 500 nM | 100 to 500 nM | > 5 µM | > 5 µM | < 100 nM |
| CC(C)[C@@H](OC(=O)N1CCC1)[C@H]1C[C@@H](C)[C@H]2[C@H](O1)[C@H](O)[C@@]1(C)[C@@H]3CC[C@H]4C(C)(C)[C@@H](OC(=O)NCCC(=O)O)CC[C@@]45C[C@@]35CC[C@]21C [Compound I-8] | 501 to 1000 nM | 501 to 1000 nM | 501 to 1000 nM |  | > 5 µM | 501 to 1000 nM |
| CC(C)[C@@H](OC(=O)N1CCC1)[C@H]1C[C@@H](C)[C@H]2[C@H](O1)[C@H](O)[C@@]1(C)[C@@H]3CC[C@H]4C(C)(C)[C@@H](OC(=O)N[C@H]5CCCNC5=O)CC[C@@]45C[C@@]35CC[C@]21C [Compound I-6] | 100 to 500 nM | 100 to 500 nM | 100 to 500 nM | > 5 µM | > 5 µM |  |
| CC(C)[C@@H](OC(=O)N1CCC1)[C@H]1C[C@@H](C)[C@H]2[C@H](O1)[C@H](O)[C@@]1(C)[C@@H]3CC[C@H]4C(C)(C)[C@@H](OC(=O)N[C@@H]5CCCNC5=O)CC[C@@]45C[C@@]35CC[C@]21C [Compound I-3] | 100 to 500 nM | 1000 to 5000 nM | 501 to 1000 nM | > 5 µM | > 5 µM | 100 to 500 nM |
